Measured values from patent EP0431784A2, “Methods for treating retroviral infection” (ELI LILLY AND COMPANY, priority 1989, dated 1991).
Where a SMILES comes first, the peptide text is derived from it. [ ]: non-standard residue; d: D form. Phe(4-NH2) = Nc1ccc(C[C@H](N)C(=O)O)cc1; Sta = CC(C)C[C@H](N)[C@@H](O)CC(=O)O

Tested on: HIV-1 protease
Conditions: for potency relative to the P-9 peptide: protease inhibitor potency compared with P-9 as standard
Procedure: A 100 µl control reaction was established containing 10 to 20 µI of crude protease, about 2 µl of the gag supernatant and final concentrations of 50 mM MES Buffer (pH 5.5), 1 mM DTT and 25 mM NaCI. Inhibition assays were performed by pre-incubating the crude protease with an inhibitory compound at room temperature for about 30 minutes before adding the gag supernatant to the reaction. Both the control and the experimental reactions were incubated from three to sixteen hours at 37° C. The reactions were then electrophoresed and blotted onto nitrocellulose filters. Monoclonal antibodies which recognize epitopes on p24 and p17 viral proteins were contacted with the filter then visualized using standard biotinylation or radionuclear techniques. Compounds which prevented the maturation of the gag polypeptide into mature viral proteins p24 and p17 were then ranked according to their HIV-1 protease inhibitory activity.
About 10 to 20 µl of the crude protease lysate was mixed with about 2 µl of the gag supernatant. The mixture was then brought to a total volume of 100 µl by the addition of distilled water, MES buffer (2-(N-Morpholino]ethanesulfonic acid) (pH 5.5 to a total concentration of 50 mM), DTT (dithiolthreitol) (to a total concentration of 1 mM) and NaCl (to a total concentration of 25 mM). This reaction mixture was mixed gently then incubated from 3 hours to overnight at 37° C.
Next, about 25 µl of the reaction was mixed with loading buffer and subjected to polyacrylamide gel electrophoresis on a 12.5% Laemmli gel under reducing conditions. The proteins were transferred onto a nitrocellulose filter using standard "Western Blot" electrophoresis at 500 mAmps for 35 minutes at room temperature. The filter was air-dried, then non-specific immunoreaction was blocked by washing the filter for 30 minutes at 4° C in a solution of 3% non-fat dry milk powder in phosphate buffered saline (PBS).
Monoclonal antibodies against p17 and/or p24 (available from Dupont, Wilmington, Delaware) were added to about 40 ml of the 3% milk/PBS solution to a final concentration of 2 µg/ml. The nitrocellulose filter was added to the antisera solution and slowly rocked for 2 hours at 4 C. The filter then was removed and washed 5 times with PBS, then the maturation of the gag gene was determined by reaction with 1^125- labeled protein A or by reaction with biotinylated anti-mouse lgG antibodies (Vecta Stain@).
To run the I^125-labeled protein A reaction, about 10 µCi of I^125-labeled protein A was added to 100 ml of the 3% milk/PBS solution. The filter was rocked in this solution for 2 hours at 4° C, washed three times with PBS, then two times with PBS and 0.1% Tween 20. The filter was then air-dried and exposed to x-ray film for autoradiography.
The Vecta Stain@ (Vector Laboratories, Burlingome, California) procedure was performed according to the manufacturer's recommendations. Four drops of the biotinylated IgG was added to 40 mls of the 3% Milk/PBS solution, then the filter was rocked in this solution for 60 minutes at 4° C. The filter was washed five times with PBS, then rocked for 30 to 60 minutes at 4 C in Reagent ABC. Reagent ABC was prepared by adding 4 drops of Reagent A (Avidin DH) and 4 drops of Reagent B (biotinylated peroxidase) to 20 ml of 3% Milk/PBS. The filter was then washed five times with PBS, then the filter was developed by washing it for 5 to 10 minutes in 10 ml of PBS containing 0.02% H202 and 10 ml of 4-chloro-1 naphthol. When the color was fully developed, the filter was washed with distilled water and air-dried.
Following the procedure, it is simple to determine the activity of the HIV-1 protease encoded on plasmid pHP10D and produced in E. coli cells.

SMILES | HIV protease inhibitory activity (result in words) | potency relative to the P-9 peptide | also measured
CC(=O)N[C@H](C(=O)N[C@@H](CC(C)C)[C@@H](O)CC(=O)N[C@@H](CC(C)C)C(=O)N[C@@H](Cc1ccccc1)C(N)=O)C(C)C [Ac-Val-Statine-Leu-Phe-NH2] (Ac-V[Sta]LF-NH2) | inactive |  | 
COc1ccc(C[C@H](NC(C)=O)C(=O)N[C@@H](Cc2ccccc2)C(=O)N[C@H](C(=O)N[C@@H](CC(C)C)[C@@H](O)CC(=O)N[C@@H](CC(C)C)C(=O)N[C@@H](Cc2ccccc2)C(=O)N[C@@H](Cc2ccc(O)cc2)C(=O)N[C@@H](CC(C)C)C(N)=O)C(C)C)cc1 [Ac-YOM-Phe-Val-Statine-Leu-Phe-Tyr-Leu-NH2] (Ac-Y(Me)FV[Sta]LFYL-NH2) | totally inactive |  | 
CC(C)C[C@H](NC(=O)C[C@H](O)[C@H](CC(C)C)NC(=O)[C@@H](NC(=O)[C@H](Cc1ccccc1)NC(=O)[C@@H]1CCCN1C(=O)[C@H](Cc1ccc(N)cc1)NC(=O)[C@@H]1CCCN1)C(C)C)C(=O)N[C@@H](Cc1ccccc1)C(=O)N[C@@H](Cc1ccc(N)cc1)C(N)=O [P-1, H-Pro-paF-Pro-Phe-Val-Statine-Leu-Phe-paF-NH2] (H-P[Phe(4-NH2)]PFV[Sta]LF[Phe(4-NH2)]-NH2) |  |  | potency relative to the R,S-diastereomer (P-28) ((S,S) Statine versus R,S-Sta peptide): 20 times
COc1ccc(C[C@H](NC(C)=O)C(=O)N2CCC[C@H]2C(=O)N[C@@H](Cc2ccccc2)C(=O)N[C@H](C(=O)N[C@@H](CC(C)C)[C@@H](O)CC(=O)N[C@@H](CC(C)C)C(=O)N[C@@H](Cc2ccccc2)C(N)=O)C(C)C)cc1 [P-9, Ac-YOM-Pro-Phe-Val-Statine-Leu-Phe-NH2] (Ac-Y(Me)PFV[Sta]LF-NH2) |  |  | potency relative to P-7 (protease inhibitor potency compared with P-7): increases the potency three to four times
COc1ccc(C[C@H](NC(=O)[C@H](Cc2ccc(O)cc2)NC(=O)CNC(C)=O)C(=O)N2CCC[C@H]2C(=O)N[C@@H](Cc2ccccc2)C(=O)N[C@H](C(=O)N[C@@H](CC(C)C)[C@@H](O)CC(=O)N[C@@H](CC(C)C)C(=O)N[C@@H](Cc2ccccc2)C(N)=O)C(C)C)cc1 [P-29, Ac-Gly-Tyr-YOM-Pro-Phe-Val-Statine-Leu-Phe-NH2] (Ac-GYY(Me)PFV[Sta]LF-NH2) |  | three times more potent | 
COc1ccc(C[C@H](NC(C)=O)C(=O)N2CCC[C@H]2C(=O)N[C@@H](Cc2ccccc2)C(=O)N[C@H](C(=O)N[C@@H](CC(C)C)[C@@H](O)CC(=O)N[C@@H](CC(C)C)C(=O)N[C@@H](Cc2ccccc2)C(=O)N[C@@H](Cc2ccc(O)cc2)C(=O)N[C@@H](CC(C)C)C(N)=O)C(C)C)cc1 [P-30, Ac-YOM-Pro-Phe-Val-Statine-Leu-Phe-Tyr-Leu-NH2] (Ac-Y(Me)PFV[Sta]LFYL-NH2) |  | about 1.5 times | 
